Experimental findings from patent US20250136596A1, “MEMBRANE-ASSOCIATED TYROSINE- AND THREONINE-SPECIFIC CDC2-INHIBITORY KINASE (PKMYT1) INHIBITORS AND USES THEREOF” (Insilico Medicine IP Limited, priority 2022, published 2025) are described below.

By IC50 is commonly meant the midpoint of a concentration-inhibition curve.

The assay deals with PKMYT1 (Homo sapiens (Human), UniProt Q99640). Nature of the assay: PKMYT1 HTRF Assay. It counts as binding. To be noted: Tracer 178, GST-Tb; compound 10 μM to 0.5 nM; read-out: MYT1 HTRF IC50. In short, it runs like this:
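Compound (final 10 μM to 0.5 nM) preincubated with PKMYT1 enzyme 15 min at 25° C, then Tracer 178 added for 60 min at 25° C. GST-Tb added, 15 min at 25° C, before HTRF readout.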
A general note: Time-resolved FRET reads energy transfer from a long-lived donor to a nearby acceptor.

Each structure is given as a SMILES string. A value given as a limit tells only on which side of the number the result lay.

PKMYT1, sequence (Q99640 whole entry): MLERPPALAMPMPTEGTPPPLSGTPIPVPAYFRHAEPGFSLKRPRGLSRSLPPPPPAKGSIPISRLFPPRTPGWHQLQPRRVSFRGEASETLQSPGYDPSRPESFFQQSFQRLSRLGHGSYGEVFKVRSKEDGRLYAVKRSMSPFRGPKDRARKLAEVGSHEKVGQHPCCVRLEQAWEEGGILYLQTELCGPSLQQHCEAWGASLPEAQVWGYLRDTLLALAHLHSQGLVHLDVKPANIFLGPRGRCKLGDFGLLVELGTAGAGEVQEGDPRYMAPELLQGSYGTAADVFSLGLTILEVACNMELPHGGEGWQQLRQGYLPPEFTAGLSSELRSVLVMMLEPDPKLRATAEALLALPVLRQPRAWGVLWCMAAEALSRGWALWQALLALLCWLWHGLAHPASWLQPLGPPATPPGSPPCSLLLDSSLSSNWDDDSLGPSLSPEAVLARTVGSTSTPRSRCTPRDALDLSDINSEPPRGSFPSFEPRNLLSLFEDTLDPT

As to `COCCOc1ncc(-c2[nH]c3ncc(-c4c(C)ccc(O)c4C)c(C#N)c3c2Cl)cn1` [Example 76, (R)-3-chloro-5-(3-hydroxy-2,6-dimethylphenyl)-2-(2-(2-methoxyethoxy)pyrimidin-5-yl)-1H-pyrrolo[2,3-b]pyridine-4-carbonitrile], the IC50 is below 10 nM.
Then `Cc1ncc(-c2[nH]c3ncc(-c4c(C)ccc(O)c4C)c(C#N)c3c2Cl)c(C)n1` [Example 78, (R)-3-chloro-2-(2,4-dimethylpyrimidin-5-yl)-5-(3-hydroxy-2,6-dimethylphenyl)-1H-pyrrolo[2,3-b]pyridine-4-carbonitrile], with 50 to 500 nM; and `Cc1ncc(-c2[nH]c3ncc(-c4c(C)ccc(O)c4C)cc3c2Cl)cn1` [Example 79, 3-(3-chloro-2-(2-methylpyrimidin-5-yl)-1H-pyrrolo[2,3-b]pyridin-5-yl)-2,4-dimethylphenol], with 10 to 50 nM.
The same measure for `Cc1ccc(O)c(C)c1-c1cnc2[nH]c(-c3cncnc3)cc2c1C#N` [Example 80, (R)-5-(3-hydroxy-2,6-dimethylphenyl)-2-(pyrimidin-5-yl)-1H-pyrrolo[2,3-b]pyridine-4-carbonitrile]: below 10 nM.
Then `Cc1ccc(O)c(C)c1-c1cnc2[nH]c(-c3cnn(CCO)c3)cc2c1` [Example 81, 3-(2-(1-(2-hydroxyethyl)-1H-pyrazol-4-yl)-1H-pyrrolo[2,3-b]pyridin-5-yl)-2,4-dimethylphenol], with 50 to 500 nM; and `Cc1ccc(O)c(C)c1-c1cnc2[nH]c(-c3cnc(N4CCOC4=O)nc3)c(Cl)c2c1C#N` [Example 82, (R)-3-chloro-5-(3-hydroxy-2,6-dimethylphenyl)-2-(2-(2-oxooxazolidin-3-yl)pyrimidin-5-yl)-1H-pyrrolo[2,3-b]pyridine-4-carbonitrile], with below 10 nM; and `Cc1ccc(O)c(C)c1-c1cnc2[nH]c(-c3cnc(OCC(O)CO)nc3)cc2c1C#N` [Example 83, (5R)-2-(2-(2,3-dihydroxypropoxy)pyrimidin-5-yl)-5-(3-hydroxy-2,6-dimethylphenyl)-1H-pyrrolo[2,3-b]pyridine-4-carbonitrile], with below 10 nM.
Turning to `Cc1ccc(O)c(C)c1-c1cnc2[nH]c(-c3cnc(N4CC[S@SP1](=O)(=O)CC4)nc3)c(Cl)c2c1C#N` [Example 84, (R)-3-chloro-2-(2-(1,1-dioxidothiomorpholino)pyrimidin-5-yl)-5-(3-hydroxy-2,6-dimethylphenyl)-1H-pyrrolo[2,3-b]pyridine-4-carbonitrile], the IC50 was below 10 nM.
`Cc1ccc(O)c(C)c1-c1cnc2[nH]c(-c3cnc(OC(F)F)nc3)cc2c1C#N` [Example 85, 2-(2-(difluoromethoxy)pyrimidin-5-yl)-5-(3-hydroxy-2,6-dimethylphenyl)-1H-pyrrolo[2,3-b]pyridine-4-carbonitrile]: the IC50 is below 10 nM.
Consider `Cc1ccc(O)c(C)c1-c1cnc2[nH]c(-c3cnc(C(C)(C)O)nc3)cc2c1C#N` [Example 86, 5-(3-hydroxy-2,6-dimethylphenyl)-2-(2-(2-hydroxypropan-2-yl)pyrimidin-5-yl)-1H-pyrrolo[2,3-b]pyridine-4-carbonitrile], for which the IC50 was below 10 nM.
The same measure for `C#Cc1cc(-c2cc3c(C#N)c(-c4c(C)ccc(O)c4C)cnc3[nH]2)cnc1N` [Example 87, (R)-2-(6-amino-5-ethynylpyridin-3-yl)-5-(3-hydroxy-2,6-dimethylphenyl)-1H-pyrrolo[2,3-b]pyridine-4-carbonitrile]: below 10 nM; for `Cc1ccc(O)c(C)c1-c1cnc2[nH]c(-c3cnc(C(C)(C)O)nc3)cc2c1` [Example 88, 3-(2-(2-(2-hydroxypropan-2-yl)pyrimidin-5-yl)-1H-pyrrolo[2,3-b]pyridin-5-yl)-2,4-dimethylphenol]: 10 to 50 nM.
Then `Cc1ccc(O)c(C)c1-c1cnc2[nH]c(-c3cncc(N4CCC(O)CC4)c3)cc2c1C#N` [Example 89, 5-(3-hydroxy-2,6-dimethylphenyl)-2-(5-(4-hydroxypiperidin-1-yl)pyridin-3-yl)-1H-pyrrolo[2,3-b]pyridine-4-carbonitrile], with below 10 nM.
Take `CCc1c(O)ccc(C)c1-c1cnc2[nH]c(-c3cnc(C)nc3)cc2c1C#N` [Example 90, 5-(2-ethyl-3-hydroxy-6-methylphenyl)-2-(2-methylpyrimidin-5-yl)-1H-pyrrolo[2,3-b]pyridine-4-carbonitrile]: the IC50 was 50 to 500 nM.
For the compound `CCc1c(O)ccc(C)c1-c1cnc2[nH]c(-c3cnc(C)nc3)cc2c1C#N` [Example 91, (R)-5-(2-ethyl-3-hydroxy-6-methylphenyl)-2-(2-methylpyrimidin-5-yl)-1H-pyrrolo[2,3-b]pyridine-4-carbonitrile], the IC50 is 10 to 50 nM.
Then `Cc1ncc(-c2cc3c(C#N)c(-c4c(C)ccc(O)c4C)cnc3[nH]2)c(N)n1` [Example 92, 2-(4-amino-2-methylpyrimidin-5-yl)-5-(3-hydroxy-2,6-dimethylphenyl)-1H-pyrrolo[2,3-b]pyridine-4-carbonitrile], with below 10 nM.
Then `Cc1ccc(O)c(C)c1-c1cnc2[nH]c(-c3cnc(CN4CCCC4)nc3)cc2c1C#N` [Example 93, (R)-5-(3-hydroxy-2,6-dimethylphenyl)-2-(2-(pyrrolidin-1-ylmethyl)pyrimidin-5-yl)-1H-pyrrolo[2,3-b]pyridine-4-carbonitrile], with below 10 nM; and `Cc1ccc(O)c(C)c1-c1cnc2[nH]c(-c3cnc(CN4CC(F)(F)C4)nc3)cc2c1C#N` [Example 94, (R)-2-(2-((3,3-difluoroazetidin-1-yl)methyl)pyrimidin-5-yl)-5-(3-hydroxy-2,6-dimethylphenyl)-1H-pyrrolo[2,3-b]pyridine-4-carbonitrile], with below 10 nM; and `Cc1ccc(O)c(C)c1-c1cnc2[nH]c(-c3cnc(N(C)C4COC4)nc3)cc2c1C#N` [Example 96, (R)-5-(3-hydroxy-2,6-dimethylphenyl)-2-(2-(methyl(oxetan-3-yl)amino)pyrimidin-5-yl)-1H-pyrrolo[2,3-b]pyridine-4-carbonitrile], with 10 to 50 nM.
The same measure for `Cc1ccc(O)c(C)c1-c1cnc2[nH]c(-c3cnc(N4CC(C)(O)C4)nc3)cc2c1C#N` [Example 97, (R)-5-(3-hydroxy-2,6-dimethylphenyl)-2-(2-(3-hydroxy-3-methylazetidin-1-yl)pyrimidin-5-yl)-1H-pyrrolo[2,3-b]pyridine-4-carbonitrile]: below 10 nM; for `Cc1ccc(O)c(C)c1-c1cnc2[nH]c(-c3cnc(NC4COC4)nc3)cc2c1C#N` [Example 98, (R)-5-(3-hydroxy-2,6-dimethylphenyl)-2-(2-(oxetan-3-ylamino)pyrimidin-5-yl)-1H-pyrrolo[2,3-b]pyridine-4-carbonitrile]: below 10 nM.
As to `Cc1ccc(O)c(C)c1-c1cnc2[nH]c(-c3cnc(N4C5CC[C@@H]4COC5)nc3)cc2c1C#N` [Example 99, (5R)-2-(2-(3-oxa-8-azabicyclo[3.2.1]octan-8-yl)pyrimidin-5-yl)-5-(3-hydroxy-2,6-dimethylphenyl)-1H-pyrrolo[2,3-b]pyridine-4-carbonitrile], the IC50 was below 10 nM.
The same measure for `Cc1ccc(O)c(C)c1-c1cnc2[nH]c(-c3cnc(N4CC(O)C(F)C4)nc3)cc2c1C#N` [Example 100, (R)-2-(2-((3S,4S)-3-fluoro-4-hydroxypyrrolidin-1-yl)pyrimidin-5-yl)-5-(3-hydroxy-2,6-dimethylphenyl)-1H-pyrrolo[2,3-b]pyridine-4-carbonitrile]: below 10 nM; for `Cc1ccc(O)c(C)c1-c1cnc2[nH]c(-c3cnc(NCCO)nc3)cc2c1C#N` [Example 101, (R)-5-(3-hydroxy-2,6-dimethylphenyl)-2-(2-((2-hydroxyethyl)amino)pyrimidin-5-yl)-1H-pyrrolo[2,3-b]pyridine-4-carbonitrile]: below 10 nM.
Then `Cc1ccc(O)c(C)c1-c1cnc2[nH]c(-c3cnc(NC4CC(O)C4)nc3)cc2c1C#N` [Example 102, (R)-5-(3-hydroxy-2,6-dimethylphenyl)-2-(2-((3-hydroxycyclobutyl)amino)pyrimidin-5-yl)-1H-pyrrolo[2,3-b]pyridine-4-carbonitrile], with below 10 nM; and `CC#Cc1ncc(-c2cc3c(C#N)c(-c4c(C)ccc(O)c4C)cnc3[nH]2)cn1` [Example 104, (R)-5-(3-hydroxy-2,6-dimethylphenyl)-2-(2-(prop-1-yn-1-yl)pyrimidin-5-yl)-1H-pyrrolo[2,3-b]pyridine-4-carbonitrile], with below 10 nM.
As for `Cc1ccc(O)c(C)c1-c1cnc2[nH]c(-c3cnc(C(N)=O)nc3)cc2c1C#N` [Example 105, (R)-5-(4-cyano-5-(3-hydroxy-2,6-dimethylphenyl)-1H-pyrrolo[2,3-b]pyridin-2-yl)pyrimidine-2-carboxamide], the concentration for half-maximal inhibition (IC50) was below 10 nM.
Then `Cc1ccc(O)c(C)c1-c1cnc2[nH]c(-c3cnc(N)nc3)c(C)c2c1C#N` [Example 106, (R)-2-(2-aminopyrimidin-5-yl)-5-(3-hydroxy-2,6-dimethylphenyl)-3-methyl-1H-pyrrolo[2,3-b]pyridine-4-carbonitrile], with below 10 nM; and `Cc1ncc(-c2[nH]c3ncc(-c4c(C)ccc(O)c4C)c(C#N)c3c2C2CC2)cn1` [Example 108, 3-cyclopropyl-5-(3-hydroxy-2,6-dimethylphenyl)-2-(2-methylpyrimidin-5-yl)-1H-pyrrolo[2,3-b]pyridine-4-carbonitrile], with 10 to 50 nM.
As to `C#Cc1c(-c2cnc(C)nc2)[nH]c2ncc(-c3c(C)ccc(O)c3C)c(C#N)c12` [Example 109, (S)-3-ethynyl-5-(3-hydroxy-2,6-dimethylphenyl)-2-(2-methylpyrimidin-5-yl)-1H-pyrrolo[2,3-b]pyridine-4-carbonitrile], the IC50 is below 10 nM.
As for `Cc1ncc(-c2[nH]c3ncc(-c4c(C)ccc(O)c4C)c(C#N)c3c2C#CC(C)(C)O)cn1` [Example 110, (S)-5-(3-hydroxy-2,6-dimethylphenyl)-3-(3-hydroxy-3-methylbut-1-yn-1-yl)-2-(2-methylpyrimidin-5-yl)-1H-pyrrolo[2,3-b]pyridine-4-carbonitrile], the IC50 is below 10 nM.
